Reference: publication PMC6327263, “Evaluation of Novel 3-Hydroxyflavone Analogues as HDAC Inhibitors against Colorectal Cancer” (Advances in Pharmacological Sciences, 2018)

What was measured:
[1] = target: T1, recombinant human HDAC6 enzyme (Homo sapiens, UniProt Q9UBN7); assay: HDAC6 enzyme inhibition assay; assay type: biochemical; details: mean ± SEM of three experiments
T1 construct: purchased Enzo Life Sciences, Inc. USA
T1 sequence (Q9UBN7 1-1215): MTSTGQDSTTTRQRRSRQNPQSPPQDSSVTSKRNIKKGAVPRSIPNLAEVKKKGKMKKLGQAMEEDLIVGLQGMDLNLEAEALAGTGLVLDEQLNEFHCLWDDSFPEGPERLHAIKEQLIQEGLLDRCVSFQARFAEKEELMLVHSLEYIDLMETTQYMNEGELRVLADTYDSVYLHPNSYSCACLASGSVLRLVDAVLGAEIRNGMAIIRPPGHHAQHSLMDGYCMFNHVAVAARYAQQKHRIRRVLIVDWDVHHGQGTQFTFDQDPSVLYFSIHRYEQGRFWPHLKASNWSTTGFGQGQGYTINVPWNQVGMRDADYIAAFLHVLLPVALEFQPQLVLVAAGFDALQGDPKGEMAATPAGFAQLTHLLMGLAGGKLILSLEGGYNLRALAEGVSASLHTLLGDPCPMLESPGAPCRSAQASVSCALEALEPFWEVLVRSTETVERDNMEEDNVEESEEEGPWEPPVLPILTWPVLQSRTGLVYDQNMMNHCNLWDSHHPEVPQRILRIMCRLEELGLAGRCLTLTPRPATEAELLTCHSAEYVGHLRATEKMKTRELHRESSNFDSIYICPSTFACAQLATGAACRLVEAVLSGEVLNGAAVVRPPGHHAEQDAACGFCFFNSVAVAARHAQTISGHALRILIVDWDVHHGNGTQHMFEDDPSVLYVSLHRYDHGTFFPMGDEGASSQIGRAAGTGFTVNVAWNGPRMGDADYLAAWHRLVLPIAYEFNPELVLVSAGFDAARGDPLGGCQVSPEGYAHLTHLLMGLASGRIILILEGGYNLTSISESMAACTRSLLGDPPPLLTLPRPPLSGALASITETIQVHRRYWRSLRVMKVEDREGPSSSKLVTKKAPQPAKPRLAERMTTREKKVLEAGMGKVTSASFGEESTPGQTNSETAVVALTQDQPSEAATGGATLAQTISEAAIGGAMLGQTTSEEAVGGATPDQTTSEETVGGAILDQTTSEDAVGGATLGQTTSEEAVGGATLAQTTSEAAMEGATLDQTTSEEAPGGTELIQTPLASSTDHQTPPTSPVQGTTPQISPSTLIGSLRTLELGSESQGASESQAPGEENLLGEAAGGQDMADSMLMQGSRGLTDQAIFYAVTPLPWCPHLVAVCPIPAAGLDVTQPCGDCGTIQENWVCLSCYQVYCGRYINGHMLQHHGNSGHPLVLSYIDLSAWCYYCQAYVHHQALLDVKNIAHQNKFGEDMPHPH
Method: The HDAC1 and 6 assays were carried out with few modifications from the previously described method. In brief, 10 µl of different concentration of test compounds was added to 40 µl of reaction mixture containing HDAC assay buffer, HDAC substrate, and recombinant human HDAC1 and 6 enzymes. The reactions were incubated for 30 min at 37°C. Then, 50 µl of trypsin stop solution was added in each well, and the plate was incubated at room temperature for an additional 20 min. Fluorescence intensity was measured at an excitation of 360 nm and an emission of 460 nm using a fluorescence microplate reader (FLx800, BioTek Instruments Inc. Winooski, VT, USA).

VERO cells = assay: MTT cytotoxicity assay, Vero; assay type: cell-based, African green monkey; details: Chlorocebus sabaeus, 48 h, mean ± SEM of three experiments
Method: (§1) Human colorectal carcinoma cell line (HCT116) and African green monkey kidney epithelial cells (VERO) were obtained from National Centre for Cell Science, Pune, MH, India. For their maintenance, the cells were grown in Dulbecco's Modified Eagle's Medium (DMEM) which was supplemented with 10% fetal bovine serum (FBS) and 1 × penicillin/streptomycin at 37°C in CO2 incubator (NU-5501E/G, NuAire Inc., Plymouth, MN, USA) in a humidified atmosphere of 5% CO2 and 95% air.
(§2) Cytotoxicity for the synthesized analogues was determined using MTT assay. In brief, HCT116 and VERO cells were harvested from the tissue culture flask and seeded in sterile 96 well plates at a density of 5000 cells per well. After overnight adherence, different concentrations of test compounds were added and incubated for 48 h. Next, 50 µl of the MTT reagent (HiMedia Laboratories, Mumbai, India) (2 mg/ml in the sterile phosphate buffer saline (PBS)) was added into each well and incubated for 3 h. The formazan crystals formed were solubilized using 100% dimethyl sulfoxide (DMSO), and the optical density was measured at 540 nm using the microplate reader (ELx800, BioTek Instruments Inc., Winooski, VT, USA).

[2] = test system: HDAC enzyme in HCT116 cells; assay: Whole cell HDAC inhibition assay; assay type: cell-based; details: Homo sapiens, HCT-116, HCT116, 18 h treatment, mean ± SEM of three experiments
Method: Confluent HCT116 cells were harvested and seeded in 96 well sterile black well plates at a density of 2000 cells per well and incubated overnight. Furthermore, the cells were treated with different concentrations of test compounds for a period of 18 h followed by the addition of […] BOC-Ac-Lys-AMC substrate and incubated for 1 h. […] The reaction was then allowed to proceed for 15 min at 37°C. Finally, the fluorescence intensity was measured at 360 nm excitation and 460 nm emission using a fluorescence microplate reader (FLx800, BioTek Instruments Inc., Winooski, VT, USA).

p21^Waf1/Cip1 = assay: Western blotting, p21Waf1/Cip1 expression; assay type: cell-based, human; details: HCT116 cells, 24 h, compared to normal control
Method: (§3) After various treatments for 24 h, cells were lysed, and protein quantification of the lysates was estimated using the BCA™ kit (Thermo Fisher Scientific Inc., Waltham, MA, USA). Proteins samples (30 µg) were resolved on a 10% SDS-PAGE and transferred onto a PVDF membrane and blocked with 5% nonfat milk in TBST (tris-buffered saline with Tween-20) buffer for 1 h followed by washing in TBST buffer. The membrane was then probed with primary antibodies (GAPDH, HDAC8, p21^Waf1/Cip1, and acetyl-histone H3[Ac-Lys^9]) and incubated overnight at 4°C. The membrane was washed with TBST buffer and incubated with horseradish peroxidase-conjugated secondary antibody for 1 h at room temperature. Signal was captured using SuperSignal™ West Pico Plus chemiluminescent substrate (Thermo Fischer Scientific Inc., Waltham, MA, USA) on gel documentation system (G : BOX Chemi XRQ, Syngene).

HCT116 cells = assay: MTT cytotoxicity assay, HCT116; assay type: cell-based, human; details: for cytotoxicity in HCT116 relative to inhibitory concentration in normal (Vero) cell line: HCT116 vs Vero; for IC50: Homo sapiens, HCT-116, 48 h, mean ± SEM of three experiments
Method: as §1, §2

HDAC8 = assay: Western blotting, HDAC8 expression; assay type: cell-based, human; details: HCT116 cells, 24 h, compared to normal control
Method: as §3

IC50 [1] [µM] | IC50 [2] [µM] | SMILES | IC50 (VERO cells) [µM] | expression of p21^Waf1/Cip1 (p21^Waf1/Cip1) | cytotoxicity in HCT116 relative to inhibitory concentration in normal (Vero) cell line (HCT116 cells) | IC50 (HCT116 cells) [µM] | HDAC8 expression (HDAC8)
165 ± 11.1 | 182 ± 22 | Cc1ccc(-c2oc3ccccc3c(=O)c2O)cc1 [QMJ-2, 3-Hydroxy-2-(4-methylphenyl)-4H-1-benzopyran-4-one] | 140 ± 6.8 | increased | two-fold lower concentration | 68 ± 2.3 | –
163 ± 7.05 | 70.2 ± 4.3 | Cc1ccc(-c2oc3cc(C)ccc3c(=O)c2O)cc1 [QMJ-5, 3-Hydroxy-7-methyl-2-(4-methylphenyl)-4H-1-benzopyran-4-one] | 55.6 ± 3.8 | increased | two-fold lower concentration | 27.4 ± 1.8 | significant reduction

SMILES | IC50 [1] [µM] | IC50 [2] [µM] | IC50 (VERO cells) [µM] | expression of p21^Waf1/Cip1 (p21^Waf1/Cip1) | cytotoxicity in HCT116 relative to inhibitory concentration in normal (Vero) cell line (HCT116 cells) | IC50 (HCT116 cells) [µM] | HDAC8 expression (HDAC8)
O=c1c(O)c(-c2ccc(O)c(O)c2)oc2cc(O)cc(O)c12 [Quercetin, quercetin, reference compound] | 43.4 ± 2.17 | 168 ± 6.9 | 202 ± 7.5 | – | – | 108 ± 1.2 | significant reduction
